Test results published in article PMC6315506 (Viruses, 2018).
Like-named read-outs stand apart in the source and are kept apart here.

Legend:
HIV-1/H5N1 pseudovirus = assay: organism not typed; type: cell-based, influenza A virus A/Goose/Qinghai/59/05 (H5N1); conditions: A549, 48 h, read-out: Inhibition HIV-1/H5N1
HIV-1/LASV pseudovirus = assay: microbe, parasite or virus in culture; type: cell-based; conditions: Human immunodeficiency virus 1, A549, 48 h, read-out: Inhibition HIV-1/LASV
HIV-1/EBOV pseudovirus [1] = assay: microbe, parasite or virus in culture; conditions: Zaire ebolavirus, A549, read-out: IC50 (anti-HIV-1/EBOV)
HIV-1/EBOV pseudovirus [2] = assay: organism not typed; conditions: A549, 48 h, read-out: Inhibition HIV-1/EBOV
[3] = test system: EBOV Mayinga isolate (EBOV-GFP); assay: microbe, parasite or virus in culture; type: cell-based, Ebola virus; conditions: for IC50: read-out: IC50 against replication of infectious EBOV
HIV-1/EBOV pseudovirus [4] = test system: HIV-1/EBOV pseudovirus
in vitro = conditions: human
EBOV = conditions: cited from earlier work
Ebola glycoprotein = conditions: cited from earlier work

Which inhibition at 10 µM (HIV-1/H5N1 pseudovirus) does the source give for CN(C)Cc1ccc(-c2cc3cc(Br)ccc3nc2OCc2ccc(Cl)cc2)cc1 [SYL1712] here?
Its inhibition at 10 µM is 5.75%.

And the inhibition at 10 µM (HIV-1/LASV pseudovirus)?
Its inhibition at 10 µM is 55.4%.

What about the IC50 (HIV-1/EBOV pseudovirus [1]) of the same molecule?
The IC50 was about 1000 nM.

What about the inhibition at 10 µM (HIV-1/EBOV pseudovirus [2]) of the same molecule?
The inhibition at 10 µM was 99.4%.

What about the “selective index (SI)” value [3] of the same molecule?
The value was 37.2.

What about the IC50 ([3]; Zaire ebolavirus, HeLa, 24 h) of the same molecule?
Its IC50 is 2000 nM.

What about the IC50 [3] of the same molecule?
Its IC50 is 1990 nM.

And the “SI (CC50/IC50)” value (HIV-1/EBOV pseudovirus [4])?
Its value is 225.9.

What about the IC50 (HIV-1/EBOV pseudovirus [4]; read-out: IC50 (anti-HIV-1/EBOV)) of the same molecule?
The IC50 was 950 nM.

What about the viability at 10 µM (in vitro) of the same molecule?
Its viability at 10 µM is 96.9%.

With COc1ccc(S(=O)(=O)N(CC(=O)Nc2ccccc2-c2ccccc2)c2ccc(C)cc2)cc1 [MBX 2254] as the molecule, how does the IC90 (EBOV) read?
Its IC90 is 3000 nM.

With O=c1oc2c(O)c(O)cc3c(=O)oc4c(O)c(O)cc1c4c23 [Ellagic acid] as the molecule, how does the IC50 (EBOV) read?
The IC50 was 1400 nM.

For CCN(CC)CC(=O)NCc1cc(-c2ccc(I)cc2)no1 [3,5-Disubstituted isoxazole], which IC50 (EBOV) is on record?
The IC50 was 2500 nM.

For FC(F)C(F)(F)C1=Nc2ccccc2N=C(c2ccccc2)C1 [benzodiazepine], which IC90 (EBOV) is on record?
The IC90 was 3500 nM.

With CN(C)CCOc1ccc(/C(=C(/CCCl)c2ccccc2)c2ccccc2)cc1 [Toremifene] as the molecule, how does the Kd (Ebola glycoprotein) read?
The Kd was 16000 nM.
